Values quoted from earlier work, collected in US20070128260A1, “Aqueous polymer dispersions for stabilizing actives” (priority 2005, published 2007).
Where a name gives a salt, the structure may show the parent alone. Read-outs that look alike come from different tables or passages of the source.

Row | Compound | water sol. (25° C.) | other results
1 | Nc1nc2c(ncn2COCCO)c(=O)[nH]1 [Acylovir] | – | water sol. (37° C.): 2.5 mg/mL
2 | CC(C)CN(C[C@@H](O)[C@H](Cc1ccccc1)NC(=O)O[C@H]1CCOC1)S(=O)(=O)c1ccc(N)cc1 [Amprenavir] | 0.04 mg/mL | –
3 | Nc1ccn([C@@H]2CS[C@H](CO)O2)c(=O)n1 [Lamivudine] | – | water sol. (20° C.): 70 mg/mL
4 | CC(=O)N[C@H]1[C@H]([C@H](O)[C@H](O)CO)OC(C(=O)O)=C[C@@H]1N=C(N)N [Zanamivir] | – | water sol. (20° C.): 18 mg/mL
5 | CC(C)CN(C[C@@H](OP(=O)(O)O)[C@H](Cc1ccccc1)NC(=O)O[C@H]1CCOC1)S(=O)(=O)c1ccc(N)cc1 [fosamprenavir] | 0.31 mg/mL | –

Second part, led by results:

Row | water sol. (25° C.) | Compound | other results
6 | 77 mg/mL | Nc1nc(NC2CC2)c2ncn([C@H]3C=C[C@@H](CO)C3)c2n1 [Abacavir sulfate] | –
7 | 20.1 mg/mL | Cc1cn([C@H]2C[C@H](N=[N+]=[N-])[C@@H](CO)O2)c(=O)[nH]c1=O [Zidovudine] | –
8 | 174 mg/mL | CC(C)[C@H](N)C(=O)OCCOCn1cnc2c(=O)[nH]c(N)nc21 [valacyclovir] | –
